Laboratory results published in patent publication US20220073553A1, “METHOD FOR EXTRACTING HIGH-PURITY POLYDEOXYRIBONUCLEOTIDE FROM SALMON TESTES” (Bio Medi pharm Co. Ltd., priority 2020, published 2022).
“And” between values parts separate entries of the source, which are not always exact repeats. Identical values can stand only once. No end group written: not given here.

System: sperm from regions of salmon testes
Experiment: Motility of sperm from regions of salmon testes after hormone treatment
Assay type: cell-based
Conditions: regions C of testes of male salmon caught in a river in October; treated with different types of hormones
Protocol: The immature testicular regions A, B, and C are ground and diluted with an artificial seminal plasma. The grinding is performed by the following procedure. First, the testes are cut into small pieces with scissors such that the membranes surrounding the spermatids of the testes are peeled off. […] Here, care should be taken because a high speed of the impeller causes cell disruption, increasing the possibility that impurities may increase. Immature regions (except for regions D where semen leaks out, see FIG. 4) were collected by cutting the testes of male salmon. […] Regions C of the testes of male salmon caught in a river in October were treated with three different types of hormones: hGC, luteinizing hormone-releasing hormone (LhRH), and DHP.

For “luteinizing hormone-releasing hormone (QHWSYGLRPG; ends and bridges not checked; UniProt P01148 24-33, looked up) [LhRH, hormone used for comparison with hCG]”, the “Sperm motility (%)” value was 5% and 5 ± 2.8%.
